According to publication PMC5218480 (PLoS ONE, 2017):

System: MV-4-11 cells
Test: Gene expression microarray analysis (Affymetrix PrimeView) and GSEA
Type: cell-based, human
Design: RFU PODN (11730768_x_at) / Fold change /veh PODN (11730768_x_at) / RFU LINC00158 (11744669_a_at) / Fold change /veh LINC00158 (11744669_a_at) / RFU DUSP10 (11751237_a_at) / Fold change /veh DUSP10 (11751237_a_at) / RFU ID3 (11757404_x_at) / Fold change /veh ID3 (11757404_x_at) / RFU PLEKHG5 (11737974_s_at) / Fold change /veh PLEKHG5 (11737974_s_at) / RFU LRRC4B (11730491_at) / Fold change /veh LRRC4B (11730491_at) / RFU GIMAP4 (11747438_a_at) / Fold change /veh GIMAP4 (11747438_a_at) / RFU KRT8 (11758183_x_at) / Fold change /veh KRT8 (11758183_x_at) / RFU CNN1 (11734310_a_at) / Fold change /veh CNN1 (11734310_a_at) / RFU VPS37D (11726825_at) / Fold change /veh VPS37D (11726825_at) / RFU C10orf10 (11716522_x_at) / Fold change /veh C10orf10 (11716522_x_at) / RFU KIR2DL2 /// KIR2DL4 /// KIR2DL5A /// KIR2DL5B /// KIR2DS1 /// KIR2DS2 /// KIR2DS3 /// KIR2DS4 /// KIR3DL3 /// KIR3DL3 /// KIR3DS1 (11738374_at) / Fold change /veh KIR2DL2 /// KIR2DL4 /// KIR2DL5A /// KIR2DL5B /// KIR2DS1 /// KIR2DS2 /// KIR2DS3 /// KIR2DS4 /// KIR3DL3 /// KIR3DL3 /// KIR3DS1 (11738374_at) / RFU C1QL1 (11718748_at) / Fold change /veh C1QL1 (11718748_at) / RFU TMPRSS4 (11747572_a_at) / Fold change /veh TMPRSS4 (11747572_a_at) / RFU HAMP (11756126_x_at) / Fold change /veh HAMP (11756126_x_at) / RFU RNFT2 (11725882_a_at) / Fold change /veh RNFT2 (11725882_a_at) / RFU NR4A2 (11747474_a_at) / Fold change /veh NR4A2 (11747474_a_at) / RFU ABCC12 (11746883_a_at) / Fold change /veh ABCC12 (11746883_a_at) / RFU TMEM136 (11760407_x_at) / Fold change /veh TMEM136 (11760407_x_at) / RFU CLDN22 /// WWC2 (11732394_at) / Fold change /veh CLDN22 /// WWC2 (11732394_at) / RFU HLA-DPB1 (11760878_x_at) / Fold change /veh HLA-DPB1 (11760878_x_at) / RFU SPINT1 (11716480_a_at) / Fold change /veh SPINT1 (11716480_a_at) / RFU GAP43 (11754022_s_at) / Fold change /veh GAP43 (11754022_s_at) / RFU A4GNT (11735810_at) / Fold change /veh A4GNT (11735810_at) / RFU PRB3 (11715151_x_at) / Fold change /veh PRB3 (11715151_x_at) / RFU TUBB4B (11761932_at) / Fold change /veh TUBB4B (11761932_at) / RFU CAPN14 (11732068_a_at) / Fold change /veh CAPN14 (11732068_a_at) / RFU TMCC2 (11721928_a_at) / Fold change /veh TMCC2 (11721928_a_at) / RFU IRGQ (11745062_a_at) / Fold change /veh IRGQ (11745062_a_at) / RFU FAM174B (11720279_a_at) / Fold change /veh FAM174B (11720279_a_at) / RFU TMPRSS4 (11748680_a_at) / Fold change /veh TMPRSS4 (11748680_a_at) / RFU FAM212B (11763350_a_at) / Fold change /veh FAM212B (11763350_a_at) / RFU PLEKHG5 (11743358_a_at) / Fold change /veh PLEKHG5 (11743358_a_at) / RFU ZSCAN30 (11745921_a_at) / Fold change /veh ZSCAN30 (11745921_a_at) / RFU CMKLR1 (11741424_a_at) / Fold change /veh CMKLR1 (11741424_a_at) / RFU LOC101060620 /// MAPK8IP1 (11723275_at) / Fold change /veh LOC101060620 /// MAPK8IP1 (11723275_at) / RFU SPTSSB (11747773_x_at) / Fold change /veh SPTSSB (11747773_x_at) / RFU PRSS12 (11739890_at) / Fold change /veh PRSS12 (11739890_at) / RFU BIN1 (11741810_x_at) / Fold change /veh BIN1 (11741810_x_at) / RFU WNT11 (11732464_a_at) / Fold change /veh WNT11 (11732464_a_at) / RFU C10orf10 (11716521_a_at) / Fold change /veh C10orf10 (11716521_a_at) / RFU C5orf56 (11738089_at) / Fold change /veh C5orf56 (11738089_at) / RFU CYB561 (11721691_x_at) / Fold change /veh CYB561 (11721691_x_at) / RFU ANKRD19P (11752326_a_at) / Fold change /veh ANKRD19P (11752326_a_at) / RFU OR2T12 /// OR2T33 /// OR2T8 (11738714_s_at) / Fold change /veh OR2T12 /// OR2T33 /// OR2T8 (11738714_s_at) / RFU VCAN (11748164_a_at) / Fold change /veh VCAN (11748164_a_at) / RFU JSRP1 (11732532_at) / Fold change /veh JSRP1 (11732532_at) / RFU KRTAP10-11 (11738290_x_at) / Fold change /veh KRTAP10-11 (11738290_x_at) / RFU MYO3A (11730013_a_at) / Fold change /veh MYO3A (11730013_a_at) / RFU EBF3 (11725865_a_at) / Fold change /veh EBF3 (11725865_a_at) / RFU CAMK2N1 (11719241_x_at) / Fold change /veh CAMK2N1 (11719241_x_at) / RFU C5orf56 (11738088_a_at) / Fold change /veh C5orf56 (11738088_a_at) / RFU OLFML3 (11715873_a_at) / Fold change /veh OLFML3 (11715873_a_at) / RFU LOC100653217 /// NTM (11731650_a_at) / Fold change /veh LOC100653217 /// NTM (11731650_a_at) / RFU MAPK11 (11762145_a_at) / Fold change /veh MAPK11 (11762145_a_at) / RFU FIZ1 (11724087_x_at) / Fold change /veh FIZ1 (11724087_x_at) / RFU OASL (11726364_x_at) / Fold change /veh OASL (11726364_x_at) / RFU SOX15 (11748057_x_at) / Fold change /veh SOX15 (11748057_x_at) / RFU CD79A (11719716_a_at) / Fold change /veh CD79A (11719716_a_at) / RFU HIST1H1D (11736915_at) / Fold change /veh HIST1H1D (11736915_at) / RFU CASKIN2 (11723855_a_at) / Fold change /veh CASKIN2 (11723855_a_at) / RFU LOC730098 (11760151_x_at) / Fold change /veh LOC730098 (11760151_x_at) / RFU OR4N2 (11742367_at) / Fold change /veh OR4N2 (11742367_at) / RFU PRRT2 (11749266_a_at) / Fold change /veh PRRT2 (11749266_a_at) / RFU SNX32 (11753110_a_at) / Fold change /veh SNX32 (11753110_a_at) / RFU CDHR5 (11726645_a_at) / Fold change /veh CDHR5 (11726645_a_at) / RFU RCAN1 (11760418_a_at) / Fold change /veh RCAN1 (11760418_a_at) / RFU FAM167A (11723789_a_at) / Fold change /veh FAM167A (11723789_a_at) / RFU FAM26E (11764081_at) / Fold change /veh FAM26E (11764081_at) / RFU ISYNA1 (11749810_s_at) / Fold change /veh ISYNA1 (11749810_s_at) / RFU ACY1 (11761880_at) / Fold change /veh ACY1 (11761880_at) / RFU 11764098_at / Fold change /veh 11764098_at / RFU SAMD14 (11745864_x_at) / Fold change /veh SAMD14 (11745864_x_at) / RFU NPB (11741838_a_at) / Fold change /veh NPB (11741838_a_at) / RFU TMPRSS6 (11731388_a_at) / Fold change /veh TMPRSS6 (11731388_a_at) / RFU KRTAP10-2 (11738614_at) / Fold change /veh KRTAP10-2 (11738614_at) / RFU ARHGAP8 /// PRR5-ARHGAP8 (11727945_x_at) / Fold change /veh ARHGAP8 /// PRR5-ARHGAP8 (11727945_x_at) / RFU KRTAP5-7 /// NADSYN1 (11734609_at) / Fold change /veh KRTAP5-7 /// NADSYN1 (11734609_at) / RFU RASL12 (11751679_a_at) / Fold change /veh RASL12 (11751679_a_at) / RFU CDKN2B (11736163_a_at) / Fold change /veh CDKN2B (11736163_a_at) / RFU PRF1 (11729649_at) / Fold change /veh PRF1 (11729649_at) / RFU, ZNF638 /// ZNF638-IT1 / Fold change vs veh, ZNF638 /// ZNF638-IT1 / RFU, PANK3 / Fold change vs veh, PANK3 / RFU, SH3YL1 / Fold change vs veh, SH3YL1 / RFU, ZEB2 / Fold change vs veh, ZEB2 / RFU, NRIP1 / Fold change vs veh, NRIP1 / RFU, PTTG1IP / Fold change vs veh, PTTG1IP / RFU, CAPN2 / Fold change vs veh, CAPN2 / RFU, MED14 / Fold change vs veh, MED14 / RFU, SNORA58 / Fold change vs veh, SNORA58 / RFU, C1orf63 / Fold change vs veh, C1orf63 / RFU, LRRFIP1 / Fold change vs veh, LRRFIP1 / RFU, NDUFAF7 / Fold change vs veh, NDUFAF7 / RFU, SLC12A2 / Fold change vs veh, SLC12A2 / RFU, IBTK / Fold change vs veh, IBTK / RFU, ESF1 / Fold change vs veh, ESF1 / Fold change vs veh, TMEM50B / RFU, TAOK1 / Fold change vs veh, TAOK1 / RFU, ACBD3 / Fold change vs veh, ACBD3 / RFU, TMA16 / Fold change vs veh, TMA16 / RFU, RWDD3 / Fold change vs veh, RWDD3 / RFU, BCAT1 / Fold change vs veh, BCAT1 / RFU, EDEM3 / Fold change vs veh, EDEM3 / RFU, TMEM33 / Fold change vs veh, TMEM33 / RFU, WDR75 / Fold change vs veh, WDR75 / RFU, AHCTF1 / Fold change vs veh, AHCTF1 / RFU, TFRC / Fold change vs veh, TFRC / RFU, ZDHHC17 / Fold change vs veh, ZDHHC17 / RFU, NOM1 / Fold change vs veh, NOM1 / RFU, ARL8B / Fold change vs veh, ARL8B / RFU, ZBTB11 / Fold change vs veh, ZBTB11 / RFU, TAMM41 / Fold change vs veh, TAMM41 / RFU, KIAA1704 /// LOC100996395 / Fold change vs veh, KIAA1704 /// LOC100996395 / RFU, ING1 / Fold change vs veh, ING1 / RFU, TRMT61B / Fold change vs veh, TRMT61B / RFU, FUBP3 / Fold change vs veh, FUBP3 / RFU, TP53 / Fold change vs veh, TP53 / RFU, TNKS2 / Fold change vs veh, TNKS2 / RFU, ZFP14 / Fold change vs veh, ZFP14 / RFU, ACTR2 / Fold change vs veh, ACTR2 / RFU, PPP3R1 / Fold change vs veh, PPP3R1 / RFU, PIK3R1 / Fold change vs veh, PIK3R1 / RFU, HNRNPA1 / Fold change vs veh, HNRNPA1 / RFU, RNF170 / Fold change vs veh, RNF170 / RFU, ZNF28 / Fold change vs veh, ZNF28 / RFU, RNGTT / Fold change vs veh, RNGTT / RFU, OGT / Fold change vs veh, OGT / RFU, BRD1 / Fold change vs veh, BRD1 / RFU, MARS / Fold change vs veh, MARS / RFU, ZNF655 / Fold change vs veh, ZNF655 / RFU, FAHD1 / Fold change vs veh, FAHD1 / RFU, BDP1 / Fold change vs veh, BDP1 / RFU, LRRCC1 / Fold change vs veh, LRRCC1 / RFU, ARID1A / Fold change vs veh, ARID1A / RFU, ZNF146 / Fold change vs veh, ZNF146 / RFU, ZNF330 / Fold change vs veh, ZNF330 / RFU, GPN3 / Fold change vs veh, GPN3 / RFU, C9orf123 / Fold change vs veh, C9orf123 / RFU, N4BP2L2 / Fold change vs veh, N4BP2L2 / RFU, ARFIP1 / Fold change vs veh, ARFIP1 / RFU, FAM179B / Fold change vs veh, FAM179B / RFU, BCL10 / Fold change vs veh, BCL10 / RFU, UHRF1BP1L / Fold change vs veh, UHRF1BP1L / RFU, BET1 / Fold change vs veh, BET1 / RFU, CNOT2 / Fold change vs veh, CNOT2 / RFU, ZNF268 / Fold change vs veh, ZNF268 / Fold change vs veh, ZNF507 / RFU, DGCR2 / Fold change vs veh, DGCR2 / RFU, WDSUB1 / Fold change vs veh, WDSUB1 / Fold change vs veh, HSP90B1 /// MIR3652 / RFU, ADSS / Fold change vs veh, ADSS / RFU, GK / Fold change vs veh, GK / RFU, ZNF148 / Fold change vs veh, ZNF148 / RFU, TAF9 / Fold change vs veh, TAF9 / RFU, SLC1A5 / Fold change vs veh, SLC1A5 / RFU, SLMO2 / Fold change vs veh, SLMO2 / RFU, ABCC4 / Fold change vs veh, ABCC4 / RFU, LOC101060439 /// RAP1B / Fold change vs veh, LOC101060439 /// RAP1B / RFU, RFX7 / Fold change vs veh, RFX7 / RFU, GTPBP10 / Fold change vs veh, GTPBP10 / RFU, CNEP1R1 / Fold change vs veh, CNEP1R1 / RFU, BIVM-ERCC5 /// ERCC5 / Fold change vs veh, BIVM-ERCC5 /// ERCC5 / RFU, ILF3 / Fold change vs veh, ILF3 / RFU 11762660_at / Fold change /veh 11762660_at / RFU VCAN (11757783_s_at) / Fold change /veh VCAN (11757783_s_at) / RFU DDX43 (11728927_at) / Fold change /veh DDX43 (11728927_at) / RFU KRT8 (11758188_x_at) / Fold change /veh KRT8 (11758188_x_at) / RFU NKD1 (11759106_at) / Fold change /veh NKD1 (11759106_at) / RFU SRD5A1 (11742802_a_at) / Fold change /veh SRD5A1 (11742802_a_at) / RFU TPSAB1 /// TPSB2 (11721975_s_at) / Fold change /veh TPSAB1 /// TPSB2 (11721975_s_at) / RFU GSTM3 (11746129_a_at) / Fold change /veh GSTM3 (11746129_a_at) / RFU IL23R (11737362_x_at) / Fold change /veh IL23R (11737362_x_at) / RFU TMEM51 (11727254_a_at) / Fold change /veh TMEM51 (11727254_a_at) / RFU PIWIL2 (11732686_x_at) / Fold change /veh PIWIL2 (11732686_x_at) / RFU ORM1 (11744905_x_at) / Fold change /veh ORM1 (11744905_x_at) / RFU CCDC152 (11743942_at) / Fold change /veh CCDC152 (11743942_at) / RFU ECM1 (11717891_a_at) / Fold change /veh ECM1 (11717891_a_at) / RFU IL23R (11748794_a_at) / Fold change /veh IL23R (11748794_a_at) / RFU TNFAIP8L3 (11732012_x_at) / Fold change /veh TNFAIP8L3 (11732012_x_at) / RFU MBOAT4 (11741988_at) / Fold change /veh MBOAT4 (11741988_at) / RFU 11764193_at / Fold change /veh 11764193_at / RFU TMEM53 (11763286_at) / Fold change /veh TMEM53 (11763286_at) / RFU MAGEB2 (11727129_at) / Fold change /veh MAGEB2 (11727129_at) / RFU TMEM200A (11744735_a_at) / Fold change /veh TMEM200A (11744735_a_at) / RFU CCDC152 (11751479_a_at) / Fold change /veh CCDC152 (11751479_a_at) / RFU FAM211A (11726209_a_at) / Fold change /veh FAM211A (11726209_a_at) / RFU RGS16 (11746705_a_at) / Fold change /veh RGS16 (11746705_a_at) / RFU VCAN (11755009_s_at) / Fold change /veh VCAN (11755009_s_at) / RFU RHOB (11743442_s_at) / Fold change /veh RHOB (11743442_s_at) / RFU RGS16 (11720943_a_at) / Fold change /veh RGS16 (11720943_a_at) / RFU RGS16 (11720944_at) / Fold change /veh RGS16 (11720944_at) / RFU, VPS4B / Fold change vs veh, VPS4B / RFU, CREB1 / Fold change vs veh, CREB1 / RFU, DNAJC13 / Fold change vs veh, DNAJC13 / RFU, GNAQ / Fold change vs veh, GNAQ / RFU, CDK5R1 / Fold change vs veh, CDK5R1 / RFU, ZRANB3 / Fold change vs veh, ZRANB3 / RFU, CUL4A / Fold change vs veh, CUL4A / RFU, CCNY / Fold change vs veh, CCNY / RFU, UFL1 / Fold change vs veh, UFL1 / RFU, COG3 / Fold change vs veh, COG3 / RFU, DIAPH2 / Fold change vs veh, DIAPH2 / RFU, SKA2 / Fold change vs veh, SKA2 / RFU, AFF3 / Fold change vs veh, AFF3 / RFU, LMF1 / Fold change vs veh, LMF1 / RFU, IPO11 / Fold change vs veh, IPO11 / RFU, DFFB / Fold change vs veh, DFFB / RFU, FOXP1 / Fold change vs veh, FOXP1 / RFU, CARD8 / Fold change vs veh, CARD8 / RFU, STRN3 / Fold change vs veh, STRN3 / RFU, ADK / Fold change vs veh, ADK / RFU, RASSF2 / Fold change vs veh, RASSF2 / RFU, WIPF1 / Fold change vs veh, WIPF1 / RFU, LARP1B / Fold change vs veh, LARP1B / RFU, RASA1 / Fold change vs veh, RASA1 / RFU, RB1 / Fold change vs veh, RB1 / RFU, PPFIA1 / Fold change vs veh, PPFIA1 / RFU, MAT2A / Fold change vs veh, MAT2A / RFU, CCT5 / Fold change vs veh, CCT5 / RFU, WDR92 / Fold change vs veh, WDR92 / RFU, CUX1 / Fold change vs veh, CUX1 / RFU, TTC7A / Fold change vs veh, TTC7A / RFU, TMEM135 / Fold change vs veh, TMEM135 / RFU, DEPTOR / Fold change vs veh, DEPTOR / RFU, CPM / Fold change vs veh, CPM / RFU, DNAJB6 / Fold change vs veh, DNAJB6 / RFU, CACNA2D3 / Fold change vs veh, CACNA2D3 / RFU, DTX4 / Fold change vs veh, DTX4 / RFU, TFCP2 / Fold change vs veh, TFCP2 / RFU, GMCL1 /// GMCL1P1 / Fold change vs veh, GMCL1 /// GMCL1P1 / RFU, AEBP2 / Fold change vs veh, AEBP2 / RFU, SNHG1 /// SNORD22 /// SNORD25 /// SNORD26 /// SNORD27 /// SNORD28 /// SNORD29 /// SNORD31 / Fold change vs veh, SNHG1 /// SNORD22 /// SNORD25 /// SNORD26 /// SNORD27 /// SNORD28 /// SNORD29 /// SNORD31 / Fold change (Aza/veh), C12orf56 (ProbeSet 11735607_a_at) / Fold change (ACY-1035/veh), C12orf56 (ProbeSet 11735607_a_at) / Fold change (Aza/veh), FGFR1OP (ProbeSet 11751329_s_at) / Fold change (ACY-1035/veh), FGFR1OP (ProbeSet 11751329_s_at) / Fold change (Aza/veh), VPS36 (ProbeSet 11739960_a_at) / Fold change (ACY-1035/veh), VPS36 (ProbeSet 11739960_a_at) / RFU SYPL1 (11715823_x_at) / Fold change /veh SYPL1 (11715823_x_at) / RFU IGFBP7 (11715501_s_at) / Fold change /veh IGFBP7 (11715501_s_at) / RFU REEP3 (11722064_at) / Fold change /veh REEP3 (11722064_at) / RFU IGLL1 (11728026_x_at) / Fold change /veh IGLL1 (11728026_x_at): dose or concentration left out as unconfirmed
Conditions: MV-4-11 cells, 48 hours

Compound: Nc1ccc(-c2cccs2)cc1NC(=O)c1ccc2c(c1)cc(C1CC1)n2CCN1CCOCC1 [ACY-1035]
- RFU TMPRSS4 (11748680_a_at): 52.95 RFU
